Test results as given in patent US9724408B2, “Compositions and methods for activating stimulator of interferon gene-dependent signalling” (ADURO BIOTECH, INC., priority 2013, dated 2017).

Key:
THP1-Blue™ ISG cells = test: Type I interferon induction in THP1-Blue ISG reporter cells (QUANTI-Blue, A655); type: cell-based, human; conditions: 100 μM for 30 minutes, supernatants after overnight incubation, FIG. 7
Experimental: To determine the relative level of type I interferon induced in human cells by each of the native and derivative molecules as a signature of adjuvant potency, 4×10^5 THP1-Blue™ ISG cells (a human monocyte cell line transfected with an IRF-inducible secreted embryonic alkaline phosphatase reporter gene (Invivogen) which express alkaline phosphatase under the control of a promoter comprised of five IFN-stimulated response elements) were incubated with 100 μM of cyclic [G(3′,5′)pG(3′,5′)p] (CDG), cyclic [G(2′,5′)pG(3′,5′)p] (mixed linkage, or ML-CDG), or HBSS for 30 minutes at 37° C. with 5% CO2. After 30 minutes, cells were washed and plated in 96-well dish in RPMI media containing 10% FBS, and incubated at 37° C. with 5% CO2. Cell culture supernatants from each sample were collected after overnight incubation, and 20 μL of the cell culture supernatants was added to 180 μL QUANTI-Blue reagent (Invivogen) and incubated for 45 minutes to evaluate type I interferon protein levels. Readings at Absorbance 655 nm were taken every 3 minutes using a Versa Max kinetic spectrophotometer (Molecular Diagnostics).
[…]. After 30 minutes, cells were washed and plated in 96-well dish in RPMI media containing 10% FBS, and incubated at 37° C. with 5% CO2. Cell culture supernatants from each sample were collected after overnight incubation, and 20 μL of the cell culture supernatants was added to 180 μL QUANTI-Blue reagent (Invivogen) and incubated for 45 minutes. Readings at Absorbance 655 nm were taken at 15 minutes using a SpectraMax spectrophotometer (Molecular Diagnostics).
The induction of type I interferon in human cells was measured to evaluate the potency of untreated and phosphodiesterase-treated oxo, Rp monothio and Rp, Rp dithio derivatives. […]. After 30 minutes, cells were washed and plated in a 96-well dish in RPMI media containing 10% FBS, and incubated at 37° C. with 5% CO2. Cell culture supernatants from each sample were collected after 16 hr incubation, and 20 μL of the cell culture supernatants was added to 180 μL QUANTI-Blue reagent (Invivogen) and incubated for 25 minutes to evaluate type I interferon protein levels. Readings at Absorbance 655 nm were measured with a Versa Max spectrophotometer (Molecular Diagnostics).

primary human PBMCs [1] = test: Interferon gene expression in primary human PBMCs (real-time quantitative RT-PCR); type: cell-based; conditions: 5 μM, Effectene transfection, 6 hrs, four donors, FIG. 8
Experimental: (§1) To determine the levels of IFN-α, -β and -γ induced by cyclic [G(2′,5′)pG(3′,5′)p] (ML-CDG) compared to cyclic [G(3′,5′)pG(3′,5′)p] as a signature of potency to activate innate immunity, 1×10^6 primary human PBMCs isolated from four independent human donors were incubated in a 96 well U bottom plate for 30 min at 37° C., 5% CO2 with 5 or 0.5 μM of cyclic [G(3′,5′)pG(3′,5′)p] (CDG) or cyclic [G(2′,5′)pG(3′,5′)p] (ML-CDG), 1 μg/mL of Interferon Stimulatory DNA (ISD), or 4 μg/mL of Poly (I:C) utilizing Effectene transfection reagent (Qiagen) to transfer the molecules into the PBMC. ISD (Interferon Stimulating DNA) is TLR independent (Stetston, D. B. et. al. Immunity 24, 93-103, January 2006) and signals through cGAS, and is thus STING-dependent, while Poly (I:C) can signal through both TLR3 and RIG-I pathways, and are thus STING-independent. After 30 minutes, the cells were washed and replaced with RPMI media containing 10% FBS and incubated at 37° C., 5% CO2. After 6 hrs incubation, a portion of the cells were harvested and assessed by real-time quantitative RT-PCR for gene expression of the type I cytokines interferon alpha 2 (IFNA2) and interferon beta 1 (IFNB1), and the type II cytokine gene interferon gamma (IFNG). Gene expression was determined by real-time quantitative RT-PCR using the PrimePCR RNA purification and cDNA analysis system, and run on the CFX96 gene cycler (all BioRad). Normalized expression was determined for each, which accounts for the different efficiencies of PCR amplification for the target (Etarget) and the reference (Ereference), and transforms the logarithmic scaled raw data unit Cycle Threshold (CT) into the linear unit of Normalized Expression. […] To assess correlative secreted protein levels of these cytokines, supernatants were harvested from the remaining cells after 24 hours incubation and IFN-α and -γ levels were determined by Cytometric Bead Array (CBA, BD Biosciences), while IFN-β levels were determined by ELISA (PBL).

primary human PBMCs [2] = test: Secreted interferon protein in primary human PBMCs (CBA, ELISA); type: cell-based; conditions: 24 hours, four donors
Experimental: as §1

OVA257-264 peptide [3] = test: OVA-specific CD8 T cell response after CDN-adjuvanted OVA vaccination (IFNγ ELISpot); type: in vivo, C57BL/6 mice; conditions: subcutaneous
Experimental: To determine the OVA-specific CD8 T cell response induced by the different cyclic dinucleotide molecules, C57BL/6 mice (n=5) were immunized subcutaneously with 0 μg (no CDN) or 5 μg or 25 μg [G(2′,5′)pG(3′,5′)p] (mixed linkage or ML-CDG) formulated in 2% squalene-and-water with 10 μg ovalbumin protein. Seven days following the vaccination, blood was collected from each animal, and PBMCs were prepared. 5×10^4 PBMCs were stimulated overnight in an IFNγ ELISpot assay with media alone (unstimulated) or with 1 μM OVA257-264 peptide in the presence of 1×10^5 naïve splenocytes as feeder cells. IFNγ ELISpots were developed and quantified using a CTL plate reader and ImmunoSpot software.
To determine whether STING signaling is required for c[G(2′,5′)pG(3′,5′)p] (ML-CDG) to induce an OVA-specific CD8 T cell response, C57BL/6 mice (n=3 or 5) and goldenticket mice (n=3) were immunized subcutaneously with either 0 μg (no CDN) or 25 μg c[G(2′,5′)pG(3′,5′)p] (ML-CDG) formulated in 2% squalene-and-water with 10 μg ovalbumin protein. Seven days following the vaccination, blood was collected from each animal, and PBMCs were prepared. […] IFNγ ELISpots were developed and quantified using a CTL plate reader and ImmunoSpot software.

OVA257-264 peptide [4] = test: OVA-specific CD8 T cell response in goldenticket (STING−/−) mice (IFNγ ELISpot); type: in vivo; conditions: 25 μg in 2% squalene-and-water with 10 μg ovalbumin, subcutaneous, day 7, FIG. 17
Experimental: To determine whether STING signaling is required for c[G(2′,5′)pG(3′,5′)p] (ML-CDG) to induce an OVA-specific CD8 T cell response, C57BL/6 mice (n=3 or 5) and goldenticket mice (n=3) were immunized subcutaneously with either 0 μg (no CDN) or 25 μg c[G(2′,5′)pG(3′,5′)p] (ML-CDG) formulated in 2% squalene-and-water with 10 μg ovalbumin protein. Seven days following the vaccination, blood was collected from each animal, and PBMCs were prepared. 5×10^4 PBMCs were stimulated overnight in an IFNγ ELISpot assay with media alone (unstimulated) or with 1 μM OVA257-264 peptide in the presence of 1×10^5 naïve splenocytes as feeder cells. IFNγ ELISpots were developed and quantified using a CTL plate reader and ImmunoSpot software.

Question: `Nc1nc2c(ncn2C2OC3COP(=O)(O)OC4C(O)C(COP(=O)(O)OC3C2O)OC4n2cnc3c(=O)[nH]c(N)nc32)c(=O)[nH]1` (stereo not shown) [ML-CDG, cyclic-[G(2′,5′)pG(3′,5′)p]] was tested. Which “levels of IFN-β (type I interferon protein levels)” value (THP1-Blue™ ISG cells) did it give?
Answer: significantly higher levels of IFN-β than cyclic [G(3′,5′)pG(3′,5′)p]

Question: And the “gene expression for interferon gamma (IFNG)” value (primary human PBMCs [1])?
Answer: significantly higher level

Question: What about the “gene expression of interferon alpha 2 (IFNA2)” value (primary human PBMCs [1]) of the same compound?
Answer: significantly higher

Question: What about the “gene expression of interferon beta 1 (IFNB1)” value (primary human PBMCs [1]) of the same compound?
Answer: significantly higher

Question: And the “secretion of IFN-γ” value (primary human PBMCs [2]; 5 μM and 0.5 μM, CBA, FIG. 9(c))?
Answer: higher levels of IFN-γ than cyclic [G(3′,5′)pG(3′,5′)p] at the same doses, and higher levels than the ISD and Poly I:C controls

Question: And the “levels of secreted IFN-α” value (primary human PBMCs [2]; 5 μM, CBA, FIG. 9(a))?
Answer: higher than cyclic [G(3′,5′)pG(3′,5′)p] at the same or lower dose

Question: And the “levels of IFN-β” value (primary human PBMCs [2]; 5 μM, ELISA, FIG. 9(b))?
Answer: higher than with cyclic [G(3′,5′)pG(3′,5′)p] induced levels, as well as for the ISD and Poly I:C controls

Question: And the “OVA-specific CD8 immune responses” value (OVA257-264 peptide [3]; 5 μg or 25 μg in 2% squalene-and-water with 10 μg ovalbumin, day 7, FIG. 16)?
Answer: significantly higher than responses induced by unstimulated controls and by a no CDN control group

Question: What about the “OVA-specific CD8 T cell response, wild-type mice” value (OVA257-264 peptide [3]; 25 μg in 2% squalene-and-water with 10 μg ovalbumin, day 7, FIG. 17) of the same compound?
Answer: induces significant OVA257-264 immune responses compared to unstimulated control and a no CDN control

Question: And the “OVA-specific CD8 T cell response, goldenticket mice” value (OVA257-264 peptide [4])?
Answer: not significantly different than the OVA-specific responses induced by a control formulation that does not include CDN
